# Measured values taken from patent US7741350B1 (Cara Therapeutics, Inc., priority 2009, dated 2010).
# Where two headings read alike, the source gives them in different places.
# Experiments:
# [1] = target: human CB1 receptor (hCB1) (Homo sapiens, UniProt P21554); assay: cAMP assay at human CB1 receptor; assay type: cell-based; conditions: hCB1R; maximum measurable range 30 μM; read-out: EC50 (Potency at Human CB1 determined by cAMP Assay)
# Procedure: The ability of each of the compounds to act as agonists or inverse agonists at human CB2 and CB1 receptors (hCB2, hCB1, respectively) and at the rat CB2 receptor (rCB2) was determined by measuring changes in intracellular cyclic AMP (cAMP) levels as described in U.S. Pat. No. 7,517,874.
# TR-FRET was measured using a 330-380 nm excitation filter, 615 nm and 665 nm emission filters, dichroic minor 380 nm and Z=10 mm. cAMP concentrations in each well were back-calculated from a cAMP standard curve run concurrently during each assay. Each plate contained 16 wells of forskolin stimulated cells and 16 wells of forskolin plus 1 μM CP55,940-treated cells. Concentrations of cAMP were expressed as a percent of the difference of these two groups of wells. Concentration-response data including EC50 (the concentration of compound producing 50% of the maximal response) and intrinsic activity (the percent maximal activation compared to full activation by CP55, 940) were determined using a four-parameter non-linear regression algorithm (CambridgeSoft Bioassay).
# [2] = target: human CB2 receptor (hCB2) (Homo sapiens, UniProt P34972); assay: cAMP assay at human CB2 receptor; assay type: cell-based; conditions: hCB2R, maximum measurable range 30 μM
# Procedure: TR-FRET was measured using a 330-380 nm excitation filter, 615 nm and 665 nm emission filters, dichroic minor 380 nm and Z=10 mm. cAMP concentrations in each well were back-calculated from a cAMP standard curve run concurrently during each assay. Each plate contained 16 wells of forskolin stimulated cells and 16 wells of forskolin plus 1 μM CP55,940-treated cells. Concentrations of cAMP were expressed as a percent of the difference of these two groups of wells.
# [3] = EC50 (Potency at Human CB2 determined by cAMP Assay)
# [4] = read-out: EC50 (Potency at Human CB2 determined by cAMP Assay)
# Sequence of human CB2 receptor (hCB2) (P34972 whole entry): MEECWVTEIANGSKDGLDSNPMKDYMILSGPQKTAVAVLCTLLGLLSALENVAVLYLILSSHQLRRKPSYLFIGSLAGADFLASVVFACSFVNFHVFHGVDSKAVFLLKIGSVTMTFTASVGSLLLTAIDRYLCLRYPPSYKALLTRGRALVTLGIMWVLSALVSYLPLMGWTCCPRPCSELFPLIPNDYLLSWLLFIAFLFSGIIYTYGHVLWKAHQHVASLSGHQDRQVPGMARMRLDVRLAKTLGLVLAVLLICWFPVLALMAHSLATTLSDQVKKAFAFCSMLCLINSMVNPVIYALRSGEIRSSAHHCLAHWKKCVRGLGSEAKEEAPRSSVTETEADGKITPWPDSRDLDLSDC
# Sequence of human CB1 receptor (hCB1) (P21554 whole entry): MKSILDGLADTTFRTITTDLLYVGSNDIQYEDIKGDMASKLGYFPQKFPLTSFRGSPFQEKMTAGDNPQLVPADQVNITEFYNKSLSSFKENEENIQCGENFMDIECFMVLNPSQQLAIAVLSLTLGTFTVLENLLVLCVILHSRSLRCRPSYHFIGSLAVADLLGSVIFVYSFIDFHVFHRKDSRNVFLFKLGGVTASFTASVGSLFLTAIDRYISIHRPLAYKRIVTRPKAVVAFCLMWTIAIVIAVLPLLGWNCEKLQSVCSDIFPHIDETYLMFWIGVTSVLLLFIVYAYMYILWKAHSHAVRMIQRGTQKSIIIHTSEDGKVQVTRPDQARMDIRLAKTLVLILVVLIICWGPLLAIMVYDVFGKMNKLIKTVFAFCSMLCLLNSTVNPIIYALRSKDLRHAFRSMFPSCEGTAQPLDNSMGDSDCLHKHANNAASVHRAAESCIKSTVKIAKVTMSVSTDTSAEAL
SMILES,EC50 [1] [nM],"EC50 [2, 3] [nM]","EC50 [2, 4] [nM]"
"CC(C)(C)[C@@H](CO)NC(=O)n1nc(-c2ccc(F)c(F)c2)c2c1CCCC2 [Compound 51, (S)-3-(3,4-difluorophenyl)-N-(1-hydroxy-3,3-dimethylbutan-2-yl)-4,5,6,7-tetrahydro-1H-indazole-1-carboxamide]",< 1000,< 1000,
"CNC(=O)[C@@H](NC(=O)n1nc(-c2ccc(F)c(F)c2)c2c1CCNC2)C(C)(C)C [Compound 52, (S)-3-(3,4-difluorophenyl)-N-(3,3-dimethyl-1-(methylamino)-1-oxobutan-2-yl)-4,5,6,7-tetrahydro-1H-pyrazolo[4,3-c]pyridine-1-carboxamide]",< 1000,< 1000,
"CNC(=O)[C@@H](NC(=O)n1nc(-c2ccc(F)cc2)c2c1CCNC2)C(C)(C)C [Compound 53, (S)—N-(3,3-dimethyl-1-(methylamino)-1-oxobutan-2-yl)-3-(4-fluorophenyl)-4,5,6,7-tetrahydro-1H-pyrazolo[4,3-c]pyridine-1-carboxamide]",< 1000,< 1000,
"CNC(=O)[C@@H](NC(=O)n1nc(-c2ccc(F)cc2)c2c1CCN(C)C2)C(C)(C)C [Compound 54, (S)—N-(3,3-dimethyl-1-(methylamino)-1-oxobutan-2-yl)-3-(4-fluorophenyl)-5-methyl-4,5,6,7-tetrahydro-1H-pyrazolo[4,3-c]pyridine-1-carboxamide]",< 1000,< 1000,
CN1CCc2c(c(-c3ccc(F)c(F)c3)nn2C(=O)N[C@@]23C[C@@H]4C[C@@H](C[C@@](O)(C4)C2)C3)C1 [Compound 55],< 1000,< 1000,
"CC(C)(C)c1csc(NC(=O)n2nc(-c3ccc(F)c(F)c3)c3c2CCOC3)n1 [Compound 56, N-(4-tert-butylthiazol-2-yl)-3-(3,4-difluorophenyl)-6,7-dihydropyrano[4,3-c]pyrazole-1(4H)-carboxamide]",< 1000,,< 1000
CC(C)(C)c1cc(NC(=O)n2nc(-c3ccc(F)c(F)c3)c3c2CCOC3)no1 [Compound 57],> 1000,,< 1000
"CNC(=O)[C@@H](NC(=O)n1nc(-c2cc(C(F)(F)F)ccc2F)c2c1CCNC2)C(C)(C)C [Compound 58, (S)—N-(3,3-dimethyl-1-(methylamino)-1-oxobutan-2-yl)-3-(2-fluoro-5-(trifluoromethyl)phenyl)-4,5,6,7-tetrahydro-1H-pyrazolo[4,3-c]pyridine-1-carboxamide]",< 1000,,> 1000
"CC(C)(C)[C@H](NC(=O)n1nc(-c2ccc(F)c(F)c2)c2c1CCOC2)C(=O)N1CC[C@H](O)C1 [Compound 60, 3-(3,4-difluorophenyl)-N—((S)-1-((S)-3-hydroxypyrrolidin-1-yl)-3,3-dimethyl-1-oxobutan-2-yl)-6,7-dihydropyrano[4,3-c]pyrazole-1(4H)-carboxamide]",< 1000,< 1000,
"CNC(=O)[C@@H](NC(=O)n1nc(-c2ccc(F)c(F)c2)c2c1CN(C)CC2)C(C)(C)C [Compound 61, (S)-3-(3,4-difluorophenyl)-N-(3,3-dimethyl-1-(methylamino)-1-oxobutan-2-yl)-6-methyl-4,5,6,7-tetrahydro-1H-pyrazolo[3,4-c]pyridine-1-carboxamide]",< 1000,< 1000,
"CNC(=O)[C@@H](NC(=O)n1nc(-c2ccc(F)c(F)c2)c2c1CCCN2C)C(C)(C)C [Compound 62, (S)-3-(3,4-difluorophenyl)-N-(3,3-dimethyl-1-(methylamino)-1-oxobutan-2-yl)-4-methyl-4,5,6,7-tetrahydro-1H-pyrazolo[4,3-b]pyridine-1-carboxamide]",< 1000,< 1000,
"CNC(=O)[C@@H](NC(=O)n1nc(-c2ccc(F)c(F)c2)c2c1CCC1(C2)OCCO1)C(C)(C)C [Compound 63, (S)-3′-(3,4-difluorophenyl)-N-(3,3-dimethyl-1-(methylamino)-1-oxobutan-2-yl)-6′,7′-dihydrospiro[[1,3]dioxolane-2,5′-indazole]-1′(4′H)-carboxamide]",< 1000,< 1000,
